Measured values: paper PMC10176470, “Engaging a Non-catalytic Cysteine Residue Drives Potent and Selective Inhibition of Caspase-6” (Journal of the American Chemical Society, 2023)

Legend:
[1] = system: lamin A cleavage by caspase-6 in SK-N-AS cells; experiment: Lamin cleavage assay (in-cell western after staurosporine induction); format: cell-based; details: Homo sapiens, 1 h compound then staurosporine 3 h
Experimental: This assay measured lamin A cleavage under staurosporine-induced caspase activation; while staurosporine activates all executioner caspases, lamin A cleavage monitors only the activity of C6. After 1 h of preincubation with the compound and 3 h of incubation with staurosporine, lamin A cleavage was measured by in-cell western.
Inhibition of lamin A cleavage in SK-N-AS cells after staurosporine induction of caspases. Cells were treated with the indicated compound for 1 h before the addition of 10 μM staurosporine for 4 h. Error bars indicate the standard deviation from n = 4 replicate samples.
serves as a useful target-engagement assay in cells. We used the procedure of Mintz, et al, with the following modifications: SK-N-AS cells were seeded at 10,000 cells/well in black clear bottom 384-
well plates coated with poly-D-lysine and allowed to adhere overnight. Wells were treated with
varying doses of casapase-6 inhibitor, from 5 µM – 0.1 nM in 2-fold dilutions. After one hour, cells
were treated with 10 µM staurosporine to induce apoptosis and activation of multiple caspases. 3
hours after staurosporine addition, cells were fixed and permeabilized before in-cell westerns were
performed, as described.9

[2] = biological target: proteins of HEK293T cells transiently overexpressing caspase-6 (Homo sapiens, UniProt P46782); experiment: SILAC proteomics / in-gel fluorescence, competition of probe 13-t labeling by 3a; details: Comp; protein RPS5 P46782
[3] = biological target: proteins of HEK293T cells transiently overexpressing caspase-6 (Homo sapiens, UniProt P38919); experiment: as above; details: Comp; protein EIF4A3 P38919
Sequence of proteins of HEK293T cells transiently overexpressing caspase-6 (Homo sapiens, UniProt P38919) (P38919 whole entry): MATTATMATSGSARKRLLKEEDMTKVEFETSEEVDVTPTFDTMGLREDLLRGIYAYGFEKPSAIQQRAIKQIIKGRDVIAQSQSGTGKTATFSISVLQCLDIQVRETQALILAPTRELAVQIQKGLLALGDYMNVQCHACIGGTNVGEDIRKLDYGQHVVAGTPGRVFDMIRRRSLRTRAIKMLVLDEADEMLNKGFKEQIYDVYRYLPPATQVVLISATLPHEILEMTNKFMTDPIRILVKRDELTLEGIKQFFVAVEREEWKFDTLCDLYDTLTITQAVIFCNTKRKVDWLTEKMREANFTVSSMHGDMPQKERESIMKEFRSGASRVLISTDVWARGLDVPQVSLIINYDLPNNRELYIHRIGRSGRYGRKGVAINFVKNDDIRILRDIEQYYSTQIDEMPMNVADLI

[4] = biological target: T1, proteins of HEK293T cells transiently overexpressing caspase-6 (Homo sapiens, UniProt P30084); experiment: as above
T1 sequence (P30084 28-290): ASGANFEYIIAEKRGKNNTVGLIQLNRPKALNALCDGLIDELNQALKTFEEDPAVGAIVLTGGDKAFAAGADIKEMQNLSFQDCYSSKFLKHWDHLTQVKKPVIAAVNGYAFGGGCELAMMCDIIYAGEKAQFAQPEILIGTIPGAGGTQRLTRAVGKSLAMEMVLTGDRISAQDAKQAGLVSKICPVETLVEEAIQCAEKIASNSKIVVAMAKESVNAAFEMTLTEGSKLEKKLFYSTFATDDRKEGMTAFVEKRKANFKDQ

[5] = biological target: proteins of HEK293T cells transiently overexpressing caspase-6 (Homo sapiens, UniProt Q13838); experiment: as above; details: Comp; protein DDX39B Q13838
[6] = biological target: proteins of HEK293T cells transiently overexpressing caspase-6 (Homo sapiens, UniProt P07814); experiment: as above; details: Comp; protein EPRS P07814
Sequence of proteins of HEK293T cells transiently overexpressing caspase-6 (Homo sapiens, UniProt P07814) (P07814 whole entry): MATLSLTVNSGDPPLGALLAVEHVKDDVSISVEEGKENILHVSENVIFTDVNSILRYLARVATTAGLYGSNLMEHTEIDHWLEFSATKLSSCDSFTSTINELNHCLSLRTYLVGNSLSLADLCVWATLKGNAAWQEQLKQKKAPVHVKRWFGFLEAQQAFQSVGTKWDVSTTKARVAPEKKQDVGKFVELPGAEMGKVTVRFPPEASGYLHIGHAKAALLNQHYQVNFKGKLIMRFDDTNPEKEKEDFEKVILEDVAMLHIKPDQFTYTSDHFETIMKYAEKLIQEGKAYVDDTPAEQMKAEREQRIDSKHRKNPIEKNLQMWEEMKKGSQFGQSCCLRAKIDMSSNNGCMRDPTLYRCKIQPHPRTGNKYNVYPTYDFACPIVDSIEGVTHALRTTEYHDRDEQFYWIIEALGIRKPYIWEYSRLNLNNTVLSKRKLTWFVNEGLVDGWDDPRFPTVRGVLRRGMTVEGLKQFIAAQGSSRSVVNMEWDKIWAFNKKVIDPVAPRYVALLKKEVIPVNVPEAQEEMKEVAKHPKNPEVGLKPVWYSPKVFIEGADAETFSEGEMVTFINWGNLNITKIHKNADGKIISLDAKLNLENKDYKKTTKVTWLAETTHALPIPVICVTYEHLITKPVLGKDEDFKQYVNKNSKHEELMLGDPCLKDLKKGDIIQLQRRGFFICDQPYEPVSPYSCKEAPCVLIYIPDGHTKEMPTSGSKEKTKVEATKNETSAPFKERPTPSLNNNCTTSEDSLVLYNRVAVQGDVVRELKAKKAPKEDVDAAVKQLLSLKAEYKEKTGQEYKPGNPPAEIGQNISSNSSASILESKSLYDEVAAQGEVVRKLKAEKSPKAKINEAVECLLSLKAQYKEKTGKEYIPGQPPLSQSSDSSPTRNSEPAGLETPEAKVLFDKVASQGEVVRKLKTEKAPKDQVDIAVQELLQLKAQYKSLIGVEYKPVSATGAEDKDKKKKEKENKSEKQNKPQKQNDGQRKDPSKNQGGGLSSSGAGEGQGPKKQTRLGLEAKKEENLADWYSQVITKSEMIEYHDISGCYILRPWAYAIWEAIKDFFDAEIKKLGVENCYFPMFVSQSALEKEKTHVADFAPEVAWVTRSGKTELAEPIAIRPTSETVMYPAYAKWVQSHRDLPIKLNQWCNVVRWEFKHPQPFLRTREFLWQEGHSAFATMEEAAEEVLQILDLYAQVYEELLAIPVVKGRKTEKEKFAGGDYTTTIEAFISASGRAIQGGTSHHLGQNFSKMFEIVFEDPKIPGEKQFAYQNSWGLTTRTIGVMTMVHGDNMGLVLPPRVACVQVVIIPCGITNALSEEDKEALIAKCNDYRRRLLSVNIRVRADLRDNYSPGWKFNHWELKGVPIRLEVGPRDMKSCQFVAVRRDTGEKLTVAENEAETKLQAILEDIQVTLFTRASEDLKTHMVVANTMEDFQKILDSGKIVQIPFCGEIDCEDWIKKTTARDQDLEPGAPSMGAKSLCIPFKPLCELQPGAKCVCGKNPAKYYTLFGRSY

[7] = biological target: proteins of HEK293T cells transiently overexpressing caspase-6 (Homo sapiens, UniProt Q14566); experiment: as above; details: Comp; protein MCM6 Q14566
[8] = biological target: proteins of HEK293T cells transiently overexpressing caspase-6 (Homo sapiens, UniProt P62906); experiment: as above; details: Comp; protein RPL10A P62906
[9] = biological target: proteins of HEK293T cells transiently overexpressing caspase-6 (Homo sapiens, UniProt Q9P258); experiment: as above; details: Comp; protein RCC2 Q9P258
Sequence of proteins of HEK293T cells transiently overexpressing caspase-6 (Homo sapiens, UniProt Q9P258) (Q9P258 whole entry): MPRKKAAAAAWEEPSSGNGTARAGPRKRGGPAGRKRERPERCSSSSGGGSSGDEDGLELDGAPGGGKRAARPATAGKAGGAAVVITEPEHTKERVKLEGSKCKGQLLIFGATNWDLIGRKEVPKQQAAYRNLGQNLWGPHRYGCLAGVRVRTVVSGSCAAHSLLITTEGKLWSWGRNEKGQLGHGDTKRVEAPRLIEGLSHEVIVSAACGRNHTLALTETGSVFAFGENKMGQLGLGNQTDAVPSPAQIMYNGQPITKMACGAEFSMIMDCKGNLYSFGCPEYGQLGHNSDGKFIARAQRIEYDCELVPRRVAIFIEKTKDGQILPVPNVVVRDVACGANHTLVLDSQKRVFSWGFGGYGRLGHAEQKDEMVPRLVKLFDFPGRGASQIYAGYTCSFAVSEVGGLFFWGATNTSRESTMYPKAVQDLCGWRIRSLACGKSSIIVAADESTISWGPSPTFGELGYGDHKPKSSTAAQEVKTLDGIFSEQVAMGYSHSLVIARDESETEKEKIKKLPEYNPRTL

[10] = biological target: proteins of HEK293T cells transiently overexpressing caspase-6 (Homo sapiens, UniProt P14625); experiment: as above; details: Comp; protein HSP90B1 P14625
Sequence of proteins of HEK293T cells transiently overexpressing caspase-6 (Homo sapiens, UniProt P14625) (P14625 22-803): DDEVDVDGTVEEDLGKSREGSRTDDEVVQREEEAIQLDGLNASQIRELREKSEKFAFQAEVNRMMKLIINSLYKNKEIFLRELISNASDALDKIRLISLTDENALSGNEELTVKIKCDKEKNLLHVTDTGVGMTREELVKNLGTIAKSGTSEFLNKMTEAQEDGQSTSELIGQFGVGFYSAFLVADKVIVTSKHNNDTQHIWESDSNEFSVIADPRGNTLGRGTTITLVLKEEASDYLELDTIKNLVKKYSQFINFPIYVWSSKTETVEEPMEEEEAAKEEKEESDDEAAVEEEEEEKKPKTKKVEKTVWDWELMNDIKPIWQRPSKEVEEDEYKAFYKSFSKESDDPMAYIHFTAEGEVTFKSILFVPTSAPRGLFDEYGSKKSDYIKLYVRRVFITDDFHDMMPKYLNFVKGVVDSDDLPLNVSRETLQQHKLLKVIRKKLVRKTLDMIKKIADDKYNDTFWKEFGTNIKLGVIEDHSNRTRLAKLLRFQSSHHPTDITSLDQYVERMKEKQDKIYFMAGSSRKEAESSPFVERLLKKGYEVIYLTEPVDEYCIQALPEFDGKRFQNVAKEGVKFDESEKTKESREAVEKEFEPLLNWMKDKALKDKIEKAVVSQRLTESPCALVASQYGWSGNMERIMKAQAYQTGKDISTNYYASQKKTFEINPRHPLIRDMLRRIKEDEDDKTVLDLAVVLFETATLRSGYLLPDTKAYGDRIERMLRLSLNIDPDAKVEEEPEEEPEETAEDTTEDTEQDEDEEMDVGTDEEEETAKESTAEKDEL

[11] = biological target: proteins of HEK293T cells transiently overexpressing caspase-6 (Homo sapiens, UniProt P27348); experiment: as above; details: Comp; protein YWHAQ P27348
Sequence of proteins of HEK293T cells transiently overexpressing caspase-6 (Homo sapiens, UniProt P27348) (P27348 whole entry): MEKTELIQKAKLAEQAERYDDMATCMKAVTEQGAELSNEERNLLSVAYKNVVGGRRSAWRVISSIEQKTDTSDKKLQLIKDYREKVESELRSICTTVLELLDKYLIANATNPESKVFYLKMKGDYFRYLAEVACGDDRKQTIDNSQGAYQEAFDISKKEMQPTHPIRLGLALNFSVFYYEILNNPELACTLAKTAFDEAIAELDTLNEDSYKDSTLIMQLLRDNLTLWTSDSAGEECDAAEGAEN

[12] = biological target: proteins of HEK293T cells transiently overexpressing caspase-6 (Homo sapiens, UniProt Q7KZF4); experiment: as above; details: Comp; protein SND1 Q7KZF4
[13] = biological target: proteins of HEK293T cells transiently overexpressing caspase-6 (Homo sapiens, UniProt P40938); experiment: as above; details: Comp; protein RFC3 P40938
Sequence of proteins of HEK293T cells transiently overexpressing caspase-6 (Homo sapiens, UniProt P40938) (P40938 whole entry): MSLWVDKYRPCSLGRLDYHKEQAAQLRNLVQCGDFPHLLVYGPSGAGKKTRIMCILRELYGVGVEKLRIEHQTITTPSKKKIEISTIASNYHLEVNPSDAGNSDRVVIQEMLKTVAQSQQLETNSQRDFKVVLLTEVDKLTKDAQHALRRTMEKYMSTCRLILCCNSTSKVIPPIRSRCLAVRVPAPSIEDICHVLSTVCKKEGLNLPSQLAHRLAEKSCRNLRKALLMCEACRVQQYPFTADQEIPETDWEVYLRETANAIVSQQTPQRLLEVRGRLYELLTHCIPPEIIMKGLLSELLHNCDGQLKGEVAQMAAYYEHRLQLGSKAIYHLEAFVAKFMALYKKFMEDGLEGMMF

[14] = biological target: proteins of HEK293T cells transiently overexpressing caspase-6 (Homo sapiens, UniProt Q04917); experiment: as above; details: Comp; protein YWHAH Q04917
Sequence of proteins of HEK293T cells transiently overexpressing caspase-6 (Homo sapiens, UniProt Q04917) (Q04917 whole entry): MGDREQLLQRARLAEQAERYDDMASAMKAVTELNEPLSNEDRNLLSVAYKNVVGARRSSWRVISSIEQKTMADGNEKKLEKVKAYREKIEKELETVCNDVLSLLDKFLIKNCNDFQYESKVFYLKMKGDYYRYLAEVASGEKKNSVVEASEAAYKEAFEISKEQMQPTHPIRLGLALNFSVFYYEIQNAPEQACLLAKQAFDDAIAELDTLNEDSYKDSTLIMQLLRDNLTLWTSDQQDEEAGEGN

[15] = biological target: proteins of HEK293T cells transiently overexpressing caspase-6 (Homo sapiens, UniProt P57088); experiment: as above; details: Comp; protein TMEM33 P57088
[16] = biological target: proteins of HEK293T cells transiently overexpressing caspase-6 (Homo sapiens, UniProt P35606); experiment: as above; details: Comp; protein COPB2 P35606
Sequence of proteins of HEK293T cells transiently overexpressing caspase-6 (Homo sapiens, UniProt P35606) (P35606 whole entry): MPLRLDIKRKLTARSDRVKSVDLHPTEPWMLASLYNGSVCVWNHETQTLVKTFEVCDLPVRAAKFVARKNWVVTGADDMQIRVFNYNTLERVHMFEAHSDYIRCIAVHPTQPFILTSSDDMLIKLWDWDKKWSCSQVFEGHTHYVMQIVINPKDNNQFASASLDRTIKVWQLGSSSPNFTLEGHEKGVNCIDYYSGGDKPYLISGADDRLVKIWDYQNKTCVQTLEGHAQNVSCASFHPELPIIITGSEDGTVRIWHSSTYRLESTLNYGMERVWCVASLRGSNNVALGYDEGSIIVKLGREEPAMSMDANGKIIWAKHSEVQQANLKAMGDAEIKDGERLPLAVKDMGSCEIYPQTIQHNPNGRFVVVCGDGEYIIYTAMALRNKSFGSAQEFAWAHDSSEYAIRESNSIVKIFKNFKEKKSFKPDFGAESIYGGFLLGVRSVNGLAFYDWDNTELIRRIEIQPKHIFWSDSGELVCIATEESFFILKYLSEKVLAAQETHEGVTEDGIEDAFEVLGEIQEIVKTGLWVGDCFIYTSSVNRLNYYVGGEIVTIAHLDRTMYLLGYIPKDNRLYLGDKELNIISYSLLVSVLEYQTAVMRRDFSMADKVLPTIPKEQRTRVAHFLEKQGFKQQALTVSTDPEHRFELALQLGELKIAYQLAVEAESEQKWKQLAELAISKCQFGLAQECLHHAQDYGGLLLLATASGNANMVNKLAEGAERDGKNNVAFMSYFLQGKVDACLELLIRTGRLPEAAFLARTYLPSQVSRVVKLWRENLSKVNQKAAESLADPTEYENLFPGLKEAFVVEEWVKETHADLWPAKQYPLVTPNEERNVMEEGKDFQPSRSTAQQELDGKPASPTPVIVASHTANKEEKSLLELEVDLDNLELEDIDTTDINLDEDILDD

[17] = biological target: T2, proteins of HEK293T cells transiently overexpressing caspase-6 (Homo sapiens, UniProt O43175); experiment: as above; details: Comp; protein PHGDH O43175
T2 sequence (O43175 1-533): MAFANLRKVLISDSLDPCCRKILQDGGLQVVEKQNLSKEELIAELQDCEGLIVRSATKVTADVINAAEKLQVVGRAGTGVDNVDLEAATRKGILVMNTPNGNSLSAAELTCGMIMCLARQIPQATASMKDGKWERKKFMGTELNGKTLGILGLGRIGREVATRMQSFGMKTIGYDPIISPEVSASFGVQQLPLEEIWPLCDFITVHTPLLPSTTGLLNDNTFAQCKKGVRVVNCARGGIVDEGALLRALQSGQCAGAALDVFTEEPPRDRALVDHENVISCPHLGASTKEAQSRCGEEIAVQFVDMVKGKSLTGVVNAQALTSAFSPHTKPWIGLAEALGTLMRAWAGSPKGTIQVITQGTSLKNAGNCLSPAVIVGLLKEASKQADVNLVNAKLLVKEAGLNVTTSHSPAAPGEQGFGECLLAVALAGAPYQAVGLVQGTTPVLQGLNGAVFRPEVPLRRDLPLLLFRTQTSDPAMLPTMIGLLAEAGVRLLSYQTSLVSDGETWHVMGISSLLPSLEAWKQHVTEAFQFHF

[18] = protein ECHS1 (P30084), Exp Comp, analysis C6, p 0.1250, 5 peptides

For `C=CS(=O)(=O)N1C[C@H](C(=O)Nc2ccc(OC(F)(F)F)cc2)C[C@@H](c2ccccc2)C1` [3a], the IC50 [1] was 0.17 ± 0.004 µM, the enrich.exp.med [2] was 0.6107 and the enrich.exp.med [3] was 0.7351. It also gave an enrich.exp.med ([4]; Comp, protein ECHS1 P30084) of 2.261, an enrich.exp.med.lin [4, 18] of 4.794 and an enrich.exp.med.log2 [4, 18] of 2.261. It also gave an enrich.exp.med [5] of 0.6915, an enrich.exp.med [6] of 0.7098 and an enrich.exp.med [7] of 0.8484. It also gave an enrich.exp.med [8] of 0.678, an enrich.exp.med [9] of 0.5769 and an enrich.exp.med [10] of 0.7874. For the same compound, the enrich.exp.med [11] was 0.7747, the enrich.exp.med [12] was 0.6493 and the enrich.exp.med [13] was 0.6326. It also gave an enrich.exp.med [14] of 0.8526, an enrich.exp.med [15] of 0.7492 and an enrich.exp.med [16] of 0.6156. For the same compound, the enrich.exp.med [17] was 0.8298.
